# From ChEMBL document CHEMBL1201862, “PubChem BioAssay data set” (2004)
# Activity calls are given as the source filed them.
# Columns and labels:
# Fatty acid synthase [1] = target: T1, Fatty acid synthase (Homo sapiens, UniProt P49327); test: FAS thioesterase domain inhibitors, dose response, biochemical, kinetic fluorescence intensity (AID 624326); format: functional;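 further: rate of fluorescence rise from hydrolysis of a fluorogenic O-methyl fluorescein ester substrate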
# Fatty acid synthase [2] = target: T1, Fatty acid synthase; test: FAS thioesterase domain inhibitors, dose response, biochemical, endpoint fluorescence intensity, uHTS hits (AID 624327); format: functional;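 further: fluorescence from hydrolysis of an O-methyl fluorescein acyl ester substrate by the enzyme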
# Cytochrome P450 2C9 = Cytochrome P450 2C9 (Homo sapiens, UniProt P11712)
# Cytochrome P450 1A2 = target: T2, Cytochrome P450 1A2 (Homo sapiens, UniProt P05177);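 further: PubChem cytochrome P450 panel assay, CYP1A2 panel member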
# T2 sequence (P05177 whole entry): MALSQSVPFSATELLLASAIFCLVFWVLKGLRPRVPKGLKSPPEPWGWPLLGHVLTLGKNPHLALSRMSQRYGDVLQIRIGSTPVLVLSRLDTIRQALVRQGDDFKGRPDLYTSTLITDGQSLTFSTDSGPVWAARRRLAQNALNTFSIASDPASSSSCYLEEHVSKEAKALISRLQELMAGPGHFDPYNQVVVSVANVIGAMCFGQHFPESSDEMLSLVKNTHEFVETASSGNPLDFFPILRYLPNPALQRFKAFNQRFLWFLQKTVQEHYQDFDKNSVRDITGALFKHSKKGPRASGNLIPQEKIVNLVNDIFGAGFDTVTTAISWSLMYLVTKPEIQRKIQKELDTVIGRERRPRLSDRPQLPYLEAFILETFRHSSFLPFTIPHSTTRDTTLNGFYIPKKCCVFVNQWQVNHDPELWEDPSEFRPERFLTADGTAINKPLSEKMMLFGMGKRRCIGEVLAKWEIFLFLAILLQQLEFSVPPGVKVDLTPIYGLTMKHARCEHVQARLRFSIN
# Cytochrome P450 3A4 = Cytochrome P450 3A4 (Homo sapiens, UniProt P08684);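 further: CYP3A4 tested as one member of a cytochrome P450 panel screen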
# [3] = cytotoxicity in HEK-293T cells, dose response, cytotoxicity control for TCR NF-kB inhibitor project, luminescence, T-cell screen hits (AID 489026); format: functional, cell-based;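 further: cells exposed to compound about 14 hours before the viability readout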
# [4] = target: T3, Ubiquitin-conjugating enzyme E2 N (Homo sapiens, UniProt P61088); format: functional;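 further: Dose-response confirmation in a TR-FRET assay detecting UBC13-driven polyubiquitin chain formation, inhibition measured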
# T3 sequence (P61088 whole entry): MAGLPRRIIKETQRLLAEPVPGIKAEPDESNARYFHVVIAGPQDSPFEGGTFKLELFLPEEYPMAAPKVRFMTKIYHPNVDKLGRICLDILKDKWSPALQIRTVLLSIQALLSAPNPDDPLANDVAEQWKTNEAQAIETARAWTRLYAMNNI
# [5] = target: G-protein coupled receptor 55 (Homo sapiens, UniProt Q9Y2T6); test: GPR55 antagonists blocking LPI-driven arrestin recruitment, primary screen, imaging, U2OS, beta-arrestin-GFP, LPI agonist (AID 2013); format: functional;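 further: antagonist potency measured as reduced agonist-driven arrestin aggregation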
# Cytochrome P450 2C19 = Cytochrome P450 2C19 (Homo sapiens, UniProt P33261); test: Cytochrome panel assay with activity outcomes. Panel member name: p450-cyp2c19 Compounds with AC50 equal or less than 10 uM are considered active; format: functional
# cells [6] = format: functional, cell-based
# cells [7] = format: functional, cell-based; remark: listed apart in the source
# Cytochrome P450 2D6 = Cytochrome P450 2D6 (Homo sapiens, UniProt P10635);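 further: CYP2D6 member of a cytochrome P450 panel assay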
# [8] = Luminescence Cell-Based Dose Confirmation HTS to Identify Activators of 5'UTR Stem-Loop Driven Alpha-Synuclein mRNA Translation in H4 Neuroglioblastoma Cells. [Related pubchem assays: 1829 (Project Summary), 1814 (Primary HTS)]; format: functional
# Protein skinhead-1 = target: T4, Protein skinhead-1 (Caenorhabditis elegans, UniProt P34707); format: functional
# T4 sequence (P34707 whole entry): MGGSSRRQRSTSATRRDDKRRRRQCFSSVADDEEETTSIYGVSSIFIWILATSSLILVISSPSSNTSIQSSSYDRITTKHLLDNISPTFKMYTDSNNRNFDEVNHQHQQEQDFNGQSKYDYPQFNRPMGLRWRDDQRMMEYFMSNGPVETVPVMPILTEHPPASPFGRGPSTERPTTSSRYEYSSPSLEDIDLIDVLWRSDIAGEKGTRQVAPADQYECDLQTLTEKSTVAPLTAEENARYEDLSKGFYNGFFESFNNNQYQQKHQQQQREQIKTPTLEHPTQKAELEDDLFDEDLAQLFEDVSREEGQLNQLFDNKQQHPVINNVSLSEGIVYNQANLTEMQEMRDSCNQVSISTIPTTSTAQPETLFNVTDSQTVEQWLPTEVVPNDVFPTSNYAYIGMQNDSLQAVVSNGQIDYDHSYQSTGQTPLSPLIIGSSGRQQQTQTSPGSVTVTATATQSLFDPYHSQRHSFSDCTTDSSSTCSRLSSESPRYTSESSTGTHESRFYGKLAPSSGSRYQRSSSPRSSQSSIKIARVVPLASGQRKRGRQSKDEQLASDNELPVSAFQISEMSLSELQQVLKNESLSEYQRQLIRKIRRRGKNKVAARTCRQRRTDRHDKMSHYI
# [9] = target: T5, RNA-binding protein pos-1 (Caenorhabditis elegans, UniProt G5EF15); test: inhibitors of POS-1/mex-3 RNA binding, dose response, biochemical, fluorescence polarization (AID 1964);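 further: purified POS-1 fused to maltose binding protein made in E. coli; potency of compounds blocking POS-1 binding to fluorescent RNA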
# T5 sequence (G5EF15 whole entry): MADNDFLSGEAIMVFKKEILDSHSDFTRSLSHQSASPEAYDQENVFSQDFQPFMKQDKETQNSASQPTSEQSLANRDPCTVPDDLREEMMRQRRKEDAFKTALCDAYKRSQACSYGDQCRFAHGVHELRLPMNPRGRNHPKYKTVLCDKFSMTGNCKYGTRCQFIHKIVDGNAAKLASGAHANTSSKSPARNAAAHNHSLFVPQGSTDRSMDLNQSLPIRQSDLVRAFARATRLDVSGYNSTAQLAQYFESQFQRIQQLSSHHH
# H4 = test: Luminescence Cell-Based Dose Response HTS to Identify Activators of 5'UTR Stem-Loop Driven Prion Protein mRNA Translation in H4 Neuroglioblastoma Cells. [Related pubchem assays: 1829 (Project Summary), 1814 (Primary HTS)]; format: functional; conditions: Homo sapiens
# [10] = target: T6, Zinc finger protein mex-5 (Caenorhabditis elegans, UniProt Q9XUB2); test: MEX-5/TCR-2 RNA interaction inhibitors, dose response, biochemical, C. elegans, fluorescence polarization (AID 1960)
# T6 sequence (Q9XUB2 whole entry): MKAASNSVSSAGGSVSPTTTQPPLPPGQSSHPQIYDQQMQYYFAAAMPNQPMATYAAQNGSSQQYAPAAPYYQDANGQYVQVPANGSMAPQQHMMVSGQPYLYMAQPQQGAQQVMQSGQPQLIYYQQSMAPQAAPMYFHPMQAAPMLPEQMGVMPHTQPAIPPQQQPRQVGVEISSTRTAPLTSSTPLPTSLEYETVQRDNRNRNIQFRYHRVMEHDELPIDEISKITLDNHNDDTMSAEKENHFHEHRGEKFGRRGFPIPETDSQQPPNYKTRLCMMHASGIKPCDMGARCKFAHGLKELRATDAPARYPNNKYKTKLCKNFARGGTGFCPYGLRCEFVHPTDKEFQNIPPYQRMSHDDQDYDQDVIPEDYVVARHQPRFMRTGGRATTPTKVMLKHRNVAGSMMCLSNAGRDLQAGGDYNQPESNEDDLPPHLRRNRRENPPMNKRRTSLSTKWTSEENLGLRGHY
# [11] = Luminescence Cell-Based Dose Response HTS to Identify Activators of Luciferase Translation or Activity in H4 […] Cells. [Related pubchem assays: 1829 (Project Summary), 1814 (Primary HTS)]; format: functional
# Chain of Cytochrome P450 2C9 (P11712 whole entry): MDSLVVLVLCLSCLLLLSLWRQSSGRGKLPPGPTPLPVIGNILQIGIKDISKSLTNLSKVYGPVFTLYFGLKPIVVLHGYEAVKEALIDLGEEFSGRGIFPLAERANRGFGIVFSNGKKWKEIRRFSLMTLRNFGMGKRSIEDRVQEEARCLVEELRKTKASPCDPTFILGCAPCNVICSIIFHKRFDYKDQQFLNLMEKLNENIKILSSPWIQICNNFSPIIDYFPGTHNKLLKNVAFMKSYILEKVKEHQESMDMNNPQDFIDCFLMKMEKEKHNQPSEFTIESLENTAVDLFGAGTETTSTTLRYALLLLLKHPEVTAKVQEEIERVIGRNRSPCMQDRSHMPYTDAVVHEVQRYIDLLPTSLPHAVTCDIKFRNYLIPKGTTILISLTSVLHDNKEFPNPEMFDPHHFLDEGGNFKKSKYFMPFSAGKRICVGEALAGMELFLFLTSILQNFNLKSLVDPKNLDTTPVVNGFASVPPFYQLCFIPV
# T1 sequence (P49327 whole entry, the tested form may be a part): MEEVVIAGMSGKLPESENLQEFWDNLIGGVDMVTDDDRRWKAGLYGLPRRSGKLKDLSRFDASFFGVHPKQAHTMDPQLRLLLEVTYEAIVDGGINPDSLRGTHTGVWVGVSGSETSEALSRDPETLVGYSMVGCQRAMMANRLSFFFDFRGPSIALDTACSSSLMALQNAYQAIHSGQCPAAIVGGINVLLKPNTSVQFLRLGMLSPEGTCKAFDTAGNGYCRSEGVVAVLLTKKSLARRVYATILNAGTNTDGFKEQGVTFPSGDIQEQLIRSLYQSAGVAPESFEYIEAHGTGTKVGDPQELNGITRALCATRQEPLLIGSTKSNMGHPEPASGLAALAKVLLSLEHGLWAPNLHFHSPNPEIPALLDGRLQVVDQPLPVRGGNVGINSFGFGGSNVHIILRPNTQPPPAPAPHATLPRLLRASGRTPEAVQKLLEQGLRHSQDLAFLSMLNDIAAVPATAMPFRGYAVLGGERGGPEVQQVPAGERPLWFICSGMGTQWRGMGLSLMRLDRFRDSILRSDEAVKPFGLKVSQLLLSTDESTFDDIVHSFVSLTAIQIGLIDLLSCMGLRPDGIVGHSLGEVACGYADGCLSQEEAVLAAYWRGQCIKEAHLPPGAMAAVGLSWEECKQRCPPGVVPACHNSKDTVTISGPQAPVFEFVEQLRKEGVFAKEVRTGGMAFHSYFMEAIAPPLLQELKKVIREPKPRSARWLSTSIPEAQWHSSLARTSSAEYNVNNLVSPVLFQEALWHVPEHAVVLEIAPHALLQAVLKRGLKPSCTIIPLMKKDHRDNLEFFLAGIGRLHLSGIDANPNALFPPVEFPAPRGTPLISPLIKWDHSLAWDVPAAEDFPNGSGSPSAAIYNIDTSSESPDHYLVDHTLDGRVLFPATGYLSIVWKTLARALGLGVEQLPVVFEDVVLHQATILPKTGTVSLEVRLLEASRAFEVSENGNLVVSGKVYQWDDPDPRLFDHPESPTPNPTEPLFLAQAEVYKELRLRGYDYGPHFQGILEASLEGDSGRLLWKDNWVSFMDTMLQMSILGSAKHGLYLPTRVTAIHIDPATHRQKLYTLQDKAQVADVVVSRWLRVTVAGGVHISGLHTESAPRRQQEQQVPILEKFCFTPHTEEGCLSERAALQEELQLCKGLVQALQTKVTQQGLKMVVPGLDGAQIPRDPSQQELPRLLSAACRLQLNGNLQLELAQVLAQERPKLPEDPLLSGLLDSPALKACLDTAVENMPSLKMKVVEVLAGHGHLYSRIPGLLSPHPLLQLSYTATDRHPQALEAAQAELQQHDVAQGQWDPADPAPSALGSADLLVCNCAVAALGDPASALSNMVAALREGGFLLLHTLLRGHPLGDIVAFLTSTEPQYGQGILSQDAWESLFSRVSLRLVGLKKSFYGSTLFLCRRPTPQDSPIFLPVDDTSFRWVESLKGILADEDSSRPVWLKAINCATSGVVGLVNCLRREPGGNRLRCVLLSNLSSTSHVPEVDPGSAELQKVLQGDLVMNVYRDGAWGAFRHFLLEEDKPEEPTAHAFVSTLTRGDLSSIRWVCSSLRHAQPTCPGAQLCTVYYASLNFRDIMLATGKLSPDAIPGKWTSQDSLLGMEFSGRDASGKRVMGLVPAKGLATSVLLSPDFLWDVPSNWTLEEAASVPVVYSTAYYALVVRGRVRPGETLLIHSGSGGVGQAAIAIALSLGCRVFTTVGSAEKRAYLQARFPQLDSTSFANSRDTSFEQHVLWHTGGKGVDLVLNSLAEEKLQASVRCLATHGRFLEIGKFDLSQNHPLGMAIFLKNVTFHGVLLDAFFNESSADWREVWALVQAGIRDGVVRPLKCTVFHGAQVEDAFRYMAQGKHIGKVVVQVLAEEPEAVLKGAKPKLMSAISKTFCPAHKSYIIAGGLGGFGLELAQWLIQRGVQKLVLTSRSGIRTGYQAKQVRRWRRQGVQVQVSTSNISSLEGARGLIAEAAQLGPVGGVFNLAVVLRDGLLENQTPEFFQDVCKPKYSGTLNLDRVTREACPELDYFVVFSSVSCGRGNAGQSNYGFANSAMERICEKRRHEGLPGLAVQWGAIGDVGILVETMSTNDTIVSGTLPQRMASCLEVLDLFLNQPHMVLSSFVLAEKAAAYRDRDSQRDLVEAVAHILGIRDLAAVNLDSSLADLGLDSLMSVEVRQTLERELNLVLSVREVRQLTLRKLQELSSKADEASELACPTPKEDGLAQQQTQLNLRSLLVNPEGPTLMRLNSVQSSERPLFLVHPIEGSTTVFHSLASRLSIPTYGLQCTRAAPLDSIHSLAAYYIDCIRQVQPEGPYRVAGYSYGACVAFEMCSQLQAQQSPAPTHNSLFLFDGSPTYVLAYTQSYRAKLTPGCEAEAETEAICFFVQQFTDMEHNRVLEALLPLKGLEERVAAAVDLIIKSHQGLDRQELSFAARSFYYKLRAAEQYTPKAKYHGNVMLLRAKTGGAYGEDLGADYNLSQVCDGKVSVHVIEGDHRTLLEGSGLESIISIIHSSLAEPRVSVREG
# Chain of G-protein coupled receptor 55 (Q9Y2T6 whole entry): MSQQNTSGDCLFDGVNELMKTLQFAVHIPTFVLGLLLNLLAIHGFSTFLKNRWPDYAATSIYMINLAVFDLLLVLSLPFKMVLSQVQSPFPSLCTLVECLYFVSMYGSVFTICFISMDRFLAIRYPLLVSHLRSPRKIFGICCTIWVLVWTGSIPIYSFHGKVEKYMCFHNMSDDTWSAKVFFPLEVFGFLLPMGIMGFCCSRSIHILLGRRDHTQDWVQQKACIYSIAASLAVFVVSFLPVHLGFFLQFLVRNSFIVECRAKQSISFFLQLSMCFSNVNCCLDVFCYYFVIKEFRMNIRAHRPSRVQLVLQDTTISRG
# Chain of Cytochrome P450 3A4 (P08684 whole entry): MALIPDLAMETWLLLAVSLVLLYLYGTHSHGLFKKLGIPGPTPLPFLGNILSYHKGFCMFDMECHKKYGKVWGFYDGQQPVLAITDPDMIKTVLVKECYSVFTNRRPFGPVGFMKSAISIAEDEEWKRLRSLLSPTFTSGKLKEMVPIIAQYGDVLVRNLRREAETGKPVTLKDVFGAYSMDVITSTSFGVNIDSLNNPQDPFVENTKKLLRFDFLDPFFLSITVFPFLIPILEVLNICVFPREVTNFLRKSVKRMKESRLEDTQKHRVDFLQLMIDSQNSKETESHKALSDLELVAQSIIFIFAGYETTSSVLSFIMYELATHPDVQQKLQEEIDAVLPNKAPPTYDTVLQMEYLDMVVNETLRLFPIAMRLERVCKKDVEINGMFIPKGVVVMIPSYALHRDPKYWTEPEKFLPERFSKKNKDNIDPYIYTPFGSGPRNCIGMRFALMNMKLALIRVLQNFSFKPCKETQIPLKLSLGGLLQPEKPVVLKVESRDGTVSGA
# Chain of Cytochrome P450 2C19 (P33261 whole entry): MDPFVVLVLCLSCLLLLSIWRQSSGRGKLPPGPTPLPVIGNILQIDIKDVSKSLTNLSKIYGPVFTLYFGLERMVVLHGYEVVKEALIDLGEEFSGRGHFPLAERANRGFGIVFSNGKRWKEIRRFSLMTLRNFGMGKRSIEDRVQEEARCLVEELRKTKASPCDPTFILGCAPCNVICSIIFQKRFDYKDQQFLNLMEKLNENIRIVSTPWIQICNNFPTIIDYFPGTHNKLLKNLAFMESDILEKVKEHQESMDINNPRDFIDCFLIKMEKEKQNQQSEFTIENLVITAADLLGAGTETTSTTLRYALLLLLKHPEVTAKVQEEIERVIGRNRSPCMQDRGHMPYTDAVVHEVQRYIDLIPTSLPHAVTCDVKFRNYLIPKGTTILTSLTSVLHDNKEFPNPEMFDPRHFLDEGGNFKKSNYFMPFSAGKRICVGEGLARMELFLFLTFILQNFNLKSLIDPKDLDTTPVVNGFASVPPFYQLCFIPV
# Chain of Cytochrome P450 2D6 (P10635 whole entry): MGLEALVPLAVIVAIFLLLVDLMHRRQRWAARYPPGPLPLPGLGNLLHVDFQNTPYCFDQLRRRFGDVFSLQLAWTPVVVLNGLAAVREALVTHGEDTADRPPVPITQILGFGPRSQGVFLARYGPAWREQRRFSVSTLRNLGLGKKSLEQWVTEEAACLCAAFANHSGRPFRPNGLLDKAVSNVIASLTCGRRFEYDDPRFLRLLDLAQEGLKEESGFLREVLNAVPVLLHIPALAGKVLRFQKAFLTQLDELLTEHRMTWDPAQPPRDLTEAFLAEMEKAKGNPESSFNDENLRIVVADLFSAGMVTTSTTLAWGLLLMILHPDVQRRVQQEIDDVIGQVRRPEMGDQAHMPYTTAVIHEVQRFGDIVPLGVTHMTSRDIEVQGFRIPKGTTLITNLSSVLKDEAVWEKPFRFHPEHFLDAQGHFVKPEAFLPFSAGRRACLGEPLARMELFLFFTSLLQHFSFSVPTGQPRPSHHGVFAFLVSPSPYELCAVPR
smiles,measurement,setting,value
Cc1ccc([N+](=O)[O-])cc1NC(=O)CCCOc1ccccc1,IC50,Fatty acid synthase [1],27.3 µM (inactive)
same,IC50,Fatty acid synthase [2],10.1 µM (active)
Cc1nc2scc(-c3ccc(Cl)cc3)c2c(=O)o1,IC50,Fatty acid synthase [1],2.91 µM (active)
same,IC50,Fatty acid synthase [2],1.32 µM (active)
CCOc1ccc(N2C(=O)C3C4C=CC(CC4)C3C2=O)c([N+](=O)[O-])c1 (centres undefined),AC50,Cytochrome P450 2C9,inconclusive
same,AC50,Cytochrome P450 1A2,25.1 µM (inconclusive)
same,AC50,Cytochrome P450 3A4,20 µM (inconclusive)
COc1cccc(C2CC(=O)Nc3cc4c(cc32)CCC4)c1 (centres undefined),IC50,[3],> 80 µM (inactive)
COc1cccc2c1OC[C@@H](CO)[C@H]2N(C)C(=O)Nc1ccc(Cl)cc1Cl,AC50,Cytochrome P450 2C9,inconclusive
CC(=O)c1ccc(N(C(=O)c2ccco2)C(C(=O)NC2CCCC2)c2ccc(N3CCOCC3)cc2)cc1 (centres undefined),IC50,Fatty acid synthase [1],12.5 µM (active)
same,IC50,Fatty acid synthase [2],15.5 µM (active)
COC(=O)C1=C(C)N(Cc2ccccc2)C(NCc2ccc(OC)cc2)=N[C@H]1c1cccc(F)c1,IC50,[4],> 20 µM (inactive)
same,IC50,[5],1.46 µM (active)
CN(C)CCNCCN,AC50,Cytochrome P450 2C9,inconclusive
same,AC50,Cytochrome P450 2C19,inconclusive
CC(C)(C)C1=CC(O)(c2ccccc2)C=C(C(C)(C)C)C1=O,IC50,[5],18.7 µM (inactive)
Nc1cc(=O)nc(SCC(=O)Nc2cccc3ccccc23)n1CCc1ccccc1,AC50,Cytochrome P450 2C9,inconclusive
same,AC50,Cytochrome P450 1A2,17.8 µM (inconclusive)
Cc1ccc2nc(SCC(=O)Nc3ccc(Br)cc3)nc(=O)n2c1,EC50,cells [6],> 350 µM (not active)
same,EC50,cells [7],> 350 µM (not active)
COc1ccc(C(=O)Nc2cccc(-c3ccc4nncn4n3)c2)cc1,EC50,cells [6],> 350 µM (not active)
same,EC50,cells [7],> 350 µM (not active)
CCc1ccc(NS(=O)(=O)c2cc3c(cc2C)n(C)c(=O)c(=O)n3C)cc1,IC50,Fatty acid synthase [1],2.83 µM (active)
same,IC50,Fatty acid synthase [2],2.42 µM (active)
same,IC50,[5],3.39 µM (active)
Cc1ccc(C)c(OCC(=O)N2CCN(Cc3ccc4c(c3)OCO4)CC2)c1,EC50,cells [6],> 350 µM (not active)
same,EC50,cells [7],> 350 µM (not active)
O=[N+]([O-])c1ccc(CN2CC(N3CCC(Cc4ccccc4)CC3)CS2(=O)=O)cc1 (centres undefined),IC50,Fatty acid synthase [1],6.24 µM (active)
same,IC50,Fatty acid synthase [2],9.92 µM (active)
COc1ccc(S(=O)(=O)N2CCc3ccccc3C2)cc1OC,AC50,Cytochrome P450 2C9,inconclusive
O=S(=O)(Nc1ccc2c(c1)OCCO2)c1cccc2cccnc12,AC50,Cytochrome P450 2C9,inconclusive
same,AC50,Cytochrome P450 2D6,39.8 µM (inconclusive)
same,AC50,Cytochrome P450 1A2,5.01 µM (inconclusive)
Cc1cc(CC(C)C)n(-c2nc3ccccc3c(=O)n2OCc2ccccc2)n1,EC50,[8],6.96 µM (active)
same,IC50,Protein skinhead-1,> 100 µM (inactive)
same,EC50,[9],> 300 µM (not active)
same,EC50,H4,> 120 µM (not active)
same,EC50,[10],> 300 µM (not active)
same,EC50,[11],13.5 µM (active)
O=C(c1cccc(S(=O)(=O)N2CCCC2)c1)c1cccc(S(=O)(=O)N2CCCC2)c1,IC50,Fatty acid synthase [1],6.54 µM (active)
same,IC50,Fatty acid synthase [2],12.1 µM (active)
Cc1ccc(Cl)cc1N1CCN(CC(O)COCc2ccco2)CC1 (centres undefined),EC50,cells [6],> 350 µM (not active)
same,EC50,cells [7],> 350 µM (not active)
CCCC(=O)NNC(=O)CCC(=O)NCc1ccccc1,AC50,Cytochrome P450 2C9,inconclusive
same,AC50,Cytochrome P450 2C19; read-out: AC50,39.8 µM (inconclusive)
same,AC50,Cytochrome P450 3A4,0.0562 µM (inconclusive)
CCSc1nc(NCCN(C)C)c2c3c(sc2n1)COC(C)(CC)C3 (centres undefined),EC50,cells [6],> 350 µM (not active)
same,EC50,cells [7],> 350 µM (not active)
CCOC(=O)c1c(N)sc(C(O)(C(F)(F)F)C(F)(F)F)c1-c1ccc(F)cc1,IC50,[5],4.92 µM (active)
